Target: T1, EfAvs5 (Kosakonia oryzae, UniProt A0AA94GZI5)
T1 sequence (A0AA94GZI5 1-849): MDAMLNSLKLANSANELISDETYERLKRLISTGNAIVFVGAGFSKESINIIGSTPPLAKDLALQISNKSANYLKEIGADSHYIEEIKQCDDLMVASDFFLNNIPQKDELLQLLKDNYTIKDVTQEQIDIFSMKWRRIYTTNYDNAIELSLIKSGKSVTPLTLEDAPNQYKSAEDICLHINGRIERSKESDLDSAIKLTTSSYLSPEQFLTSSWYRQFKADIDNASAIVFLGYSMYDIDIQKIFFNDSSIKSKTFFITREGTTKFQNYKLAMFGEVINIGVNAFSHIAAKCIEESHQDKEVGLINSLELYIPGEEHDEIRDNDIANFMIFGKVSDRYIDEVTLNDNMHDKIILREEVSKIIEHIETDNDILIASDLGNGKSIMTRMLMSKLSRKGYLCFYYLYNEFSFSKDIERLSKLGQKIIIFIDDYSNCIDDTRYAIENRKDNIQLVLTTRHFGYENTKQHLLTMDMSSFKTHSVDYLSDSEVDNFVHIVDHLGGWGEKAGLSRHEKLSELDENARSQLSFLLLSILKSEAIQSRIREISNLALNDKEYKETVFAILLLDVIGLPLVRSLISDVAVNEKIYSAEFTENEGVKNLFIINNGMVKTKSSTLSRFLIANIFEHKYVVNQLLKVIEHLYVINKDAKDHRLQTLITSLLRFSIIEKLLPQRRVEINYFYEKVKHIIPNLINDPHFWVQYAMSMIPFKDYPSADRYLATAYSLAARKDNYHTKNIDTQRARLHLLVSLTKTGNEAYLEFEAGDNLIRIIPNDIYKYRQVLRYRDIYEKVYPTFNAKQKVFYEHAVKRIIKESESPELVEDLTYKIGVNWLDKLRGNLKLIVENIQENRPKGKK
Assay: biochemical

Nc1ncnc2c1ncn2[C@@H]1O[C@H](COP(=O)(O)OP(=O)(O)OP(=O)(O)O)[C@@H](O)[C@H]1O [ATP]
Ki: 1.74 ± 0.098 mM

Reference: paper PMC11897194 (Nature Communications, 2025)
